# Experimental data reported in ChEMBL document CHEMBL1133388, “4-Aza-2,3-dehydro-4-deoxypodophyllotoxins: simple aza-podophyllotoxin analogues possessing potent cytotoxicity” (Bioorg Med Chem Lett, 2000).
# Test system: P388
# Assay: Cytotoxicity against P-388 leukemia cells
# Format: functional, cell-based
# Conditions: Mus musculus
row,SMILES,IC50 [mg/L]
1,COc1ccc(-c2c3c(nc4cc5c(cc24)OCO5)COC3=O)cc1OC,40
2,COc1ccc(C2c3cc4c(cc3NC3COC(=O)C32)OCO4)cc1OC (centres undefined),0.048
3,COc1cc(-c2c3c(nc4cc(OC)c(OC)c(OC)c24)COC3=O)cc(OC)c1OC,29
4,COc1cc(C2C3=C(O)CCC3=Nc3cc4c(cc32)OCO4)cc(OC)c1OC (centres undefined),0.028
5,COc1cc(-c2c3c(nc4cc5c(cc24)-c2ccccc2C5)COC3=O)cc(OC)c1OC,63
6,COc1cc(-c2c3c(nc4cc5c(cc24)OCCO5)COC3=O)cc(OC)c1OC,80
7,COc1cccc(C2C3=C(O)OCC3=Nc3cc4c(cc32)OCO4)c1 (centres undefined),0.0053
8,COc1cc(C2C3=C(O)OCC3=Nc3cc4c(cc32)OCCO4)cc(OC)c1OC (centres undefined),0.0017
9,COc1cc(-c2c3c(nc4cc5c(cc24)OCO5)CCC3=O)cc(OC)c1OC,71
10,COc1ccc(C2C3=C(O)OCC3=Nc3cc4c(cc32)OCO4)cc1 (centres undefined),0.13
11,COc1cc(-c2c3c(nc4cc5c(cc24)OCO5)COC3=O)cc(OC)c1OC,> 100
12,COc1cc(C2C3=C(O)OCC3=Nc3cc4c(cc32)CCC4)cc(OC)c1OC (centres undefined),0.0041
13,OC1=C2C(=Nc3cc4c(cc3C2c2ccc3c(c2)OCO3)OCO4)CO1 (centres undefined),0.03
14,COc1cc2nc3c(c(-c4cc(OC)c(OC)c(OC)c4)c2cc1OC)C(=O)OC3,> 100
15,COc1ccc(C2C3=C(O)OCC3=Nc3cc(OC)c(OC)cc32)cc1OC (centres undefined),0.76
16,COc1cc2nc3c(c(-c4ccc5c(c4)OCO5)c2cc1OC)C(=O)OC3,2
17,COc1cc(-c2c3c(nc4cc5c(cc24)CCC5)COC3=O)cc(OC)c1OC,> 100
18,COc1cc(C2C3=C(O)OCC3=Nc3cc4c(cc32)-c2ccccc2C4)cc(OC)c1OC (centres undefined),0.92
19,COc1ccc(-c2c3c(nc4cc(OC)c(OC)cc24)COC3=O)cc1OC,39
20,COc1ccc(-c2c3c(nc4cc5c(cc24)OCO5)COC3=O)cc1,> 100
21,O=C1OCc2nc3cc4c(cc3c(-c3ccccc3)c21)OCO4,60
22,COc1cc2c(cc1OC)C(c1ccc3c(c1)OCO3)C1=C(O)OCC1=N2 (centres undefined),0.77
23,COc1cccc(-c2c3c(nc4cc5c(cc24)OCO5)COC3=O)c1,> 100
24,O=C1OCc2nc3cc4c(cc3c(-c3ccc5c(c3)OCO5)c21)OCO4,> 100
25,COc1cc(C2C3=C(COC3=O)Nc3cc(OC)c(OC)c(OC)c32)cc(OC)c1OC (centres undefined),2.6
26,COc1cc(C2C3=C(COC3=O)Nc3cc4c(cc32)OCO4)cc(OC)c1OC (centres undefined),0.0018
27,COc1cc2c(cc1OC)C(c1cc(OC)c(OC)c(OC)c1)C1=C(O)OCC1=N2 (centres undefined),4.9
28,OC1=C2C(=Nc3cc4c(cc3C2c2ccccc2)OCO4)CO1 (centres undefined),0.0053
29,COc1cc([C@@H]2c3cc4c(cc3[C@H](O)[C@H]3COC(=O)[C@H]23)OCO4)cc(OC)c1OC [PODOFILOX],0.0043
